Laboratory results from publication PMC10721329, “Quisinostat is a brain-penetrant radiosensitizer in glioblastoma” (JCI Insight, 2023).
Values joined by “and” are separate entries in the source; they are usually repeats but may differ in a detail not shown here. Identical values can stand only once.

Tests used:
[1] = Dose-response cell viability assay in normal astrocytes; format: cell-based, human; conditions: human, primary human astrocytes (NHA), NHA, 3 days, read-out: Cell viability (fraction of DMSO control)
Description: (§1) GSCs were seeded in laminin-coated tissue culture–treated 96-well plates (clear bottom, white plate; Corning) at a density of 1000–5000 cells per well (cell line dependent) in GSC media. U87-MG were seeded using their normal growth conditions without laminin (10% bovine calf serum in DMEM). All cells were incubated at 37°C and allowed to adhere overnight. The next day, cells were treated with incremental concentrations of QST (Selleckchem; 0, 10, 25, 50, 100, 250, 500, and 1000 nM) diluted in media. Cells treated without QST were treated with DMSO diluted in media. Following treatment with QST, cells were grown for 3 to 5 days (cell line dependent), and cell viability was measured and quantified. All cell viability measurements were performed using the CellTiter-Glo luminescent cell viability assay (Promega) following the manufacturer’s instructions. For the sulforhodamine B colorimetric assay for cytotoxicity, the protocol was performed as described elsewhere ([33]). All cell viability results represent the mean of at least 3 biological replicates, each containing 3 technical replicates.
(§2) Supplemental Figure 5. QST induces cell death in tumor tissue but not surrounding normal
(§3) brain tissue in vivo. (A) Dose-response curves with QST (10–1000 nM) in primary human
(§4) astrocytes. Cell viability 3 days after treatment with QST. […]

[2] = system: primary human astrocytes (NHA); assay: as above; format: cell-based; conditions: for Cell viability (fraction of DMSO control): NHA, 3 days
Description: as §1, §2, §3, §4

[3] = Stability in mouse plasma at 37°C; format: in vitro ADME; conditions: for [QST] mouse plasma at 37C, raw response / [QST], % of control: replicates; for [QST], % of control: mouse plasma
Description: Hydroxamic acid–based compounds have been reported to display poor stability and high plasma clearance due to the presence of arylesterases and carboxylesterases in rodent blood ([34]). Therefore, we measured the stability of QST in mouse plasma and brain to determine whether drug degradation occurred during our sample preparations and equilibrium dialyses for the determination of unbound drug level (performed at 37°C). […] QST degradation was also observed in mouse brain homogenate (Figure 6B). However, perfusion of mice before brain collection prevented rapid drug degradation in the brain matrix. […] Degradation of QST can also be constrained if plasma and brain samples are processed at 4°C (Supplemental Figure 4A). All subsequent sample preparations were therefore performed on ice-cold baths to avoid degradation of QST in our PK analyses. […] The observed stability is probably due to the absence of esterases in human matrices, which are responsible for degradation of QST ([34]). Because we employed QST in several in vitro studies (Figures 1–4), the stability of the molecule was also tested in the cell media used to culture GSCs (neurobasal medium; see Methods).
Stability Study in Mouse Plasma, Mouse Brain, Human Plasma, Human Brain, and Neural […]
The stability of QST was determined in BALB/c mouse plasma, male nude athymic perfused and nonperfused mouse brain homogenate (1:9 w/v of PBS; pH 7.4), human brain (obtained from VRL Eurofins) homogenate (1:4 w/v of PBS; pH 7.4), pooled human plasma (Innovative Research), and neurobasal media. QST stock solutions (1 mM) were prepared in acetonitrile, subsequently diluted in a 40% methanol mixture, and added t o the matrices to make […]
[…] Then 50 or 30 µL of either plasma or brain homogenate containing QST were aliquoted into 1.5-mL microcentrifuge tubes (Eppendorf) and were incubated at either 4 °C or 37 °C for 0, 2, 4, 6, 12, or 24 hours (n = 3 at each time point).
The stability of QST in mouse plasma was also tested at 0, 2, 8, 16, or 24 hours (n = 3 at each time point) in the presence of esterase inhibitors: 0.25 mM BNPP, 1mM dithiobis(2-nitrobenzoic acid) (DTNB), or 1.25 mM phenylmethylsulfonyl fluoride (PMSF). Plasma and brain homogenate samples were stored at −80 °C until LC-MS/MS analysis. […]

[4] = system: histone H3 acetylation (H3K9/14ac); assay: H3K9/14ac immunoblot of normal brain tissue; format: in vivo, athymic nude mice; conditions: QST 10 mg/kg IP MWF 2 weeks, individual mice
Description: Insufficient drug exposure in the brain is a major hurdle in the treatment of brain tumors. […] On the last treatment day, blood and intact brains were harvested 2 hours after dosing with QST (Figure 6E). […] Each brain hemisphere was processed separately to perform matched PK and PD analyses from the same animal. […] For PD analyses, we homogenized entire hemispheres to obtain whole-tissue protein lysates from each mouse and assessed changes in histone H3 acetylation levels using immunoblotting.
Cellular protein from cultured cells was homogenized in radioimmunoprecipitation assay (RIPA) lysis buffer containing protease and phosphatase inhibitors (ThermoFisher Scientific), rotated at 4 °C for 20 minutes and then centrifuged at 15,000 rpm for 10 minutes at 4 °C. For histone extractions, benzonase (0.1 U/μL) was added in RIPA buffer (Millipore-Sigma, 70746-4). Protein concentrations from whole-cell extracts were determined using the Bradford Protein Assay (ThermoFisher Scientific). Equal amounts of protein (10-40 μg/lane) were loaded onto 10% or 12.5% sodium dodecyl sulfate–polyacrylamide gel electrophoresis gels and transferred to a polyvinylidene fluoride membrane (Millipore-Sigma). […]

Cn1cc(CNCC2CCN(c3ncc(C(=O)NO)cn3)CC2)c2ccccc21 [QST, quisinostat]
viability at 3 days, 10 nM ([1]; QST 10 nM (log[nM] 1)): 60.9% | viability at 3 days, 25 nM ([1]; QST 25 nM (log[nM] 1.39794)): 46.7% | viability at 3 days, 50 nM ([1]; QST 50 nM (log[nM] 1.69897)): 36.5% | viability at 3 days, 100 nM ([1]; QST 100 nM (log[nM] 2)): 27.2% | Cell viability (fraction of DMSO control) ([2]; QST 10 nM (log[nM] 1)): 0.6995 and 0.7125 | Cell viability (fraction of DMSO control) ([2]; QST 25 nM (log[nM] 1.39794)): 0.5597 and 0.5623 | Cell viability (fraction of DMSO control) ([2]; QST 50 nM (log[nM] 1.69897)): 0.4582 and 0.5002 | Cell viability (fraction of DMSO control) ([2]; QST 100 nM (log[nM] 2)): 0.3562 and 0.4332 | sensitivity of primary human astrocytes to QST compared with GSCs ([2]; in vitro dose response assay): equally sensitive | [QST] mouse plasma at 37C, raw response, Average ([3]; 500 nM, Time 0): 1.911 | [QST] mouse plasma at 37C, raw response ([3]; 500 nM, Time 0): 1.823 and 1.9096 and 2.002 | [QST] mouse plasma at 37C, raw response, Average ([3]; 500 nM, Time 1): 0.7582 | [QST] mouse plasma at 37C, raw response ([3]; 500 nM, Time 1): 0.7296 and 0.7817 and 0.7634 | [QST] mouse plasma at 37C, raw response, Average ([3]; 500 nM, Time 2): 0.2892 | [QST] mouse plasma at 37C, raw response ([3]; 500 nM, Time 2): 0.2668 and 0.314 and 0.2868 | [QST] mouse plasma at 37C, raw response, Average ([3]; 500 nM, Time 4): 0.02578 | [QST] mouse plasma at 37C, raw response, Average ([3]; 500 nM, Time 8): 0.00189 | [QST] mouse plasma at 37C, raw response ([3]; 500 nM, Time 8): 0.00167 and 0.04867 and 0.00211 | half-life ([3]; BALB/c, mouse, plasma, 37°C, 8-hour incubation): ~1 h | [QST] mouse plasma at 37C, raw response ([3]; Time 4): 0.02689 and 0.02585 and 0.0246 | [QST], % of control ([3]; 10 nM, Time 6 hrs): 2.9% and 3.1% (2×) | [QST], % of control ([3]; 10 nM, Time 12 hrs): 2.6% and 2% and 2.1% | [QST], % of control ([3]; 100 nM, Time 6 hrs): 1.4% (2×) and 1.3% | [QST], % of control ([3]; 100 nM, Time 12 hrs): 0.1% (2×) and 2.5% | H3K9/14ac levels normalized to B-actin (fold change) [4]: 2.1642 and 2.588 and 3.2892 and 1.999 and 1.763
